Test results: paper PMC9354082, “5-HT3 Receptor MX Helix Contributes to Receptor Function” (ACS Chemical Neuroscience, 2022)
Positions count from the first letter of the chain named.

Tests used:
Assay in all cases: Radioligand binding, transfected HEK293 cell membranes
Settings in all cases: HEK cell membranes, n=4
[1] = target: T1, P318A mutant 5-HT3 receptor (Mus musculus, UniProt P23979, P345A)
T1 construct: expressed in transfected cells; host or cells: HEK293 cells (membranes)
T1 sequence (P23979 24-489 P345A): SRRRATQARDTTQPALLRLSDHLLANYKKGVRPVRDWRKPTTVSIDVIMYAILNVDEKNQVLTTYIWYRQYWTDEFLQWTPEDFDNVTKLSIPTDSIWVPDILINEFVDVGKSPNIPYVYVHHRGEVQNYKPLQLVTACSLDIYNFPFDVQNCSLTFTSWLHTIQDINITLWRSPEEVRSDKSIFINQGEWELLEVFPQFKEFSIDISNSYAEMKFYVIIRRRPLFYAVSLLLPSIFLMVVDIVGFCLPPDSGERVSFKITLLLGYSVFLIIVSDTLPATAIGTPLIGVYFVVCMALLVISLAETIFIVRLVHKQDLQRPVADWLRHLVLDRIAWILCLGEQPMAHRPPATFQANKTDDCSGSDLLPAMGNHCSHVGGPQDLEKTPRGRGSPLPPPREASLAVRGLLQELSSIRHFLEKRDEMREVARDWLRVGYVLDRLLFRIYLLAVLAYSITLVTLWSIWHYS
Description: (§1) One method to explore this is to perform radiolabeled ligand binding to examine the parameters associated with the binding site.
(§2) This was undertaken as previously described.[23] Briefly, transfected HEK293 cell membranes were incubated in 0.5 ml of HEPES buffer containing the 5-HT3 receptor antagonist [^3H]GR65630 to label cell surface receptors. Nonspecific binding was determined using 1 μM quipazine. Data were analyzed by iterative curve fitting using Prism. Values are presented as mean ± SEM.

[2] = target: T2, H323A mutant 5-HT3 receptor (Mus musculus, UniProt P23979, H350A)
T2 construct: expressed in transfected cells; host or cells: HEK293 cells (membranes)
T2 sequence (P23979 24-489 H350A): T1 sequence (P23979 24-489 P345A) with A322P, H327A
Description: as §1, §2

WT 5-HT3 receptor = target: T3, WT 5-HT3 receptor (Mus musculus, UniProt P23979)
T3 construct: expressed in transfected cells; host or cells: HEK293 cells (membranes)
T3 sequence (P23979 24-489): T1 sequence (P23979 24-489 P345A) with A322P
Description: as §1, §2

Cc1[nH]cnc1CCC(=O)c1cn(C)c2ccccc12 [[^3H]GR65630]
Bmax [1]: 0.9 ± 0.2 pmol/mg protein
Bmax [2]: 1.0 ± 0.1 pmol/mg protein
Bmax (WT 5-HT3 receptor): 1.1 ± 0.4 pmol/mg protein
Kd (WT 5-HT3 receptor): 0.25 ± 0.1 nM
